{"source": "patent US10590166B2", "about": "“Peptides useable for treating cancer” (Allegro Pharmaceuticals, LLC, priority 2009, dated 2020)", "type_in_all_cases": "in vivo", "key": {"[1]": {"tested_on": "New Zealand Rabbits", "assay": "Ocular toxicity of subconjunctival Compound 1 (Table C)", "details": "single subconjunctival 5.0 mg/100 μL, 48 hour follow up"}, "[2]": {"tested_on": "CNV mouse model", "assay": "Suppression of laser-induced choroidal neovascularization, CNV mouse model", "details": "14 days after laser; for size of CNV lesions: vs vehicle", "protocol": "In this example, Compound 1 was tested to determine whether it CNV in a published mouse model. See, Umeda N, Kachi S, Akiyama H, Zahn G, Vossmeyer D, Stragies R, Campochiaro P., Suppression and Regression of Choroidal Neovascularization by Systemic Administration of an α5β1 Integrin Antagonist: Molecular Pharmacology:2006, 69, 1820-1828.\nThe study mice had laser-induced rupture of Bruch's membrane followed by an intravitreal injection of a single dose of COMPOUND 1 at the concentration of 1.0 μg/1 μL, 25 μg/1 μL and at 50 μg/1 μL, as well as a vehicle immediately after laser treatment. Fourteen days after laser treatment, the area of CNV was measured by image analysis. […] FIG. 8 is a graph showing total area of neovascularization in a CNV mouse model 14 days after treatment with various doses of Compound 1 and control (vehicle only)."}, "[3]": {"tested_on": "Rabbits", "protocol": "In this example, the PVD-Inducing Effects of RGD Peptides and Glycyl-Arginyl-Glycyl-Cysteic-Threonyl-Proline-COOH (RG Cysteic Acid Peptide; GRG Cysteic Acid TP; Compound 1) (SEQ ID NO: 2) were compared in rabbits. The protocol for this study was as follows:\nAnimal Model • a) 20 Male and Female Rabbits • b) Weighing approximately 1.5-2.5 kg. • c) Divide into 2 groups\ni) 10 Rabbits were injected intravitreally with 2.5% RGD solution at pH=6.5 • a) 10 Right Eye injected with 2.5% RGD solution • b) 5 Left Eye used as BSS Control • c) 5 Left Eyes injected with 2.5% RGD+0.02% EDTA at pH=6.5\nii) 10 Rabbits were injected intravitreally with 2.5% RGCysteic solution at pH=6.5 • a) 10 Right Eye injected with 2.5% RGCysteic solution at pH=6.5 • b) 10 Left Eye injected with 2.5% RGCysteic solution+0.02% EDTA at pH=6.5\nActive Chemicals • d) Sodium EDTA—99.0-100.5% from Spectrum Chemical Corp. • e) RG Cysteic Acid—cGMP supplier (Purity>98%). • f) RGD—cGMP supplier (Purity>98%). • g) BSS solution\nBoth the RG Cysteic Acid, RGD, RG Cysteic Acid+Sodium EDTA, RGD+Sodium EDTA, and the BSS solutions were injected into the vitreous cavity 24 hours prior to surgery. The rabbits ([…]) were anesthetized with an intramuscular injection of 2.0 ml of 1:1 combination of xylazine (100 mg/ml) and Ketamine hydrochloride (100 mg/ml). Pupils are dilated with topical cyclopentolate hydrochloride 1% and Phenylephrine hydrochloride 10%.\nAll animals were initially examined with slit lamp biomicroscopy and indirect ophthalmoscopy to exclude any animals with pre-existing vitreoretinal abnormalities. The intravitreal injection of 0.10 cc was administered 2 mm posterior to the limbus in the supranasal quadrant using a 30-gauge needle attached to a 1.0 cc syringe. Care must be taken to avoid damage to the lens or retina.\nTwenty four hours following injection and immediately before initiation of a mechanical vitrectomy, a B-scan ultrasonography was performed to determine the status of the posterior vitreous and also the liquefaction of the vitreous. A two-port pars plana vitrectomy was performed using an infusion fiberoptic and a vitreous cutter attached to a vitrectomy unit. Following a 30 second core vitrectomy, the vitreous cutter was directed to the peripapillary retinal surface where, using low aspiration (<30 mmHg) a separation of the posterior cortical vitreous from the retinal surface was attempted in 4 quadrants. The sclerotomies were sutured and a postoperative B-Scan ultrasonography was carried out to determine the presence and extent of any PVD present in each quadrant. The animals were euthanized with intracardiac sodium pentobarbital injections, and the eyes were immediately enucleated.\n; • Grade 0. a) No detachment of the posterior Vitreous is observed. • b) Vitreous Liquefaction • Grade 1. a) Consists of eyes in which the vitreous is detached in 2 or less quadrants. • b) Vitreous Liquefaction • Grade 2. a) Consists of eyes in which the vitreous is detached in 3 or more quadrants, but with remaining focal attachments along the medullary rays • b) Vitreous Liquefaction • Grade 3. a) Consists of eyes in which the vitreous is totally detached from the retinal surface • b) Vitreous Liquefaction\nCare was taken to avoid damage to the adjacent retina and lens. The eyes were immersed in 2% paraformaldehyde plus 2.5% glutaraldehyde for a minimum of 24 hours at 4 degrees Celsius. A unique posterior calotte was removed, dehydrated in methanol, and dried in carbon dioxide to the critical point, sputter-coated in gold and photographed using the scanning electron microscope."}, "[4]": {"details": "Table B, single intravitreal 2.5 mg/100 μL, 24 hour follow up"}, "[5]": {"details": "Table B, single intravitreal 2.5 mg/100 μL, 24 hour follow up, share of eyes"}}, "note": "Entries after “also recorded” stand apart in the source; their conditions may differ. Square brackets hold non-standard residues; d marks the D form. Peptide text beside a SMILES is read from it. Cya = N[CH](CS(=O)(=O)O)C(=O)O"}
{"compound": "CC(O)C(NC(=O)C(CS(=O)(=O)O)NC(=O)CNC(=O)C(CCCNC(=N)N)NC(=O)CN)C(=O)N1CCCC1C(=O)O", "note": "(stereo not drawn) [Compound 1, Glycinyl-Arginyl-Glycinyl-Cysteic-Threonyl-Proline-COOH] (H-GRG[Cya]TP-OH; configuration not given here)", "values": [{"measurement": "Ocular toxicity: RPE toxicity", "setting": "[1]", "value": "No RPE toxicity"}, {"measurement": "Ocular toxicity: cataract formation", "setting": "[1]", "value": "No cataract"}, {"measurement": "Ocular toxicity: exudates", "setting": "[1]", "value": "No exudates"}, {"measurement": "Ocular toxicity: inflammation", "setting": "[1]", "value": "No inflammation"}, {"measurement": "Ocular toxicity: retinal hemorrhage", "setting": "[1]", "value": "No retinal"}, {"measurement": "Ocular toxicity: retinal tears, breaks or detachments", "setting": "[1]", "value": "No retinal tears,"}, {"measurement": "Ocular toxicity: retinal vascular compromise", "setting": "[1]", "value": "No retinal vascular"}, {"measurement": "Total PVD", "setting": "[1]; 3 eyes", "value": 0, "unit": "% Total PVD"}, {"measurement": "Vitreous liquefaction", "setting": "[1]; 3 eyes", "value": "No liquefaction"}, {"measurement": "size of CNV lesions", "setting": "[2]; single intravitreal 1.0 μg/1 μL", "value": "somewhat smaller"}, {"measurement": "reduction in CNV compared to vehicle treated eyes", "setting": "[2]; single intravitreal 25 μg/1 μL, statistically significant", "value": 43, "unit": "%"}, {"measurement": "size of CNV lesions", "setting": "[2]; single intravitreal 50 μg/1 μL", "value": "somewhat smaller"}, {"measurement": "PVD grade (postoperative B-scan)", "setting": "[3]; 2.5% intravitreal 0.10 cc, OD treated eye, 24 hours after injection, one value per animal, listed as RG Cysteic Acid", "value": "Grade 3 -; also recorded: Grade 2 - (Consists of eyes in which the vitreous is detached in 3 or more quadrants, but with remaining focal attachments along the medullary rays); also recorded: Grade 1 - (Consists of eyes in which the vitreous is detached in 2 or less quadrants.)"}, {"measurement": "liquefaction of the vitreous", "setting": "[3]; 2.5% intravitreally, 24 hours", "value": "completely liquefied"}, {"measurement": "separation of the vitreous from the retina", "setting": "[3]; 2.5% intravitreally, in 24 hours", "value": "complete separation of the vitreous from the retina"}, {"measurement": "Ocular toxicity: RPE toxicity", "setting": "[3]; [4]", "value": "No RPE toxicity"}, {"measurement": "Ocular toxicity: cataract formation", "setting": "[3]; [4]", "value": "No cataract formation"}, {"measurement": "Ocular toxicity: exudates", "setting": "[3]; [4]", "value": "No exudates"}, {"measurement": "Ocular toxicity: inflammation", "setting": "[3]; [4]", "value": "No inflammation"}, {"measurement": "Ocular toxicity: retinal hemorrhage", "setting": "[3]; [4]", "value": "No retinal hemorrhage"}, {"measurement": "Ocular toxicity: retinal tears, breaks or detachments", "setting": "[3]; [4]", "value": "No retinal tears, breaks"}, {"measurement": "Ocular toxicity: retinal vascular compromise", "setting": "[3]; [4]", "value": "No retinal vascular"}, {"measurement": "Complete Liquefaction", "setting": "[3]; [5]", "value": "PVD - 80% Complete"}, {"measurement": "Total PVD", "setting": "[3]; [5]", "value": "Group 1: - 60% Total"}, {"measurement": "activity in inducing complete PVD and liquefying the vitreous, compared with RGD", "setting": "[3]; rabbits, 2.5% intravitreal", "value": "equal or slightly better than that of RGD"}, {"measurement": "activity when administered with 0.02% Sodium Edetate", "setting": "[3]; rabbits, 2.5% intravitreal", "value": "not altered"}, {"measurement": "adverse effects from the intravitreal injection", "setting": "[3]; rabbits, 2.5% intravitreal", "value": "no adverse effects or adverse safety effects"}]}
